The text below walks through data of US20250296959A1, “B7-H3 TARGETING PEPTIDES AND CONSTRUCTS THEREOF” (Mariana Oncology Inc., priority 2024, published 2025).

Starred links: 1 amine or outer side, 2 acyl side, 3 side chain; linkers in the order of their positions; H or OH if unused. Positions of bridges follow the written chain, without caps; N, C: chain ends. Non-standard residues stand in square brackets, D forms with d. Residues, ends and D or L forms follow the SMILES beside them. Groups on a side chain read outwards from the residue. ξ: configuration not given here. *: point of attachment. X7 = O=C(O)CN1CCN(CC(=O)O)CCN(CC(=O)NCCOCCOCCOCCOCCOCCOCCOCCOCC(=O)*)CCN(CC(=O)O)CC1; Ala(piperidin-4-yl) = O=C([C@H](CC1CCN([*:3])CC1)N[*:1])[*:2]; DOTA = O=C(O)CN1CCN(CC(=O)O)CCN(CC(=O)*)CCN(CC(=O)O)CC1; Trp(1-CH2COOH) = N[C@@H](Cc1cn(CC(=O)O)c2ccccc12)C(=O)O; Trp(5-F) = N[C@@H](Cc1c[nH]c2ccc(F)cc12)C(=O)O; X1 = C[C@@H](c1ccccc1)[C@H](N[*:1])C(=O)[*:2]; γGlu = O=C(O)[C@H](CCC(=O)[*:2])N[*:1]; 1Nal = N[C@@H](Cc1cccc2ccccc12)C(=O)O; Ala(4-THP) = N[C@@H](CC1CCOCC1)C(=O)O; Phe(2-F) = N[C@@H](Cc1ccccc1F)C(=O)O; Phe(2-Me) = Cc1ccccc1C[C@H](N)C(=O)O; Val(3-OH) = CC(C)(O)[C@H](N)C(=O)O; 3Pal = N[C@@H](Cc1cccnc1)C(=O)O; 4Pal = N[C@@H](Cc1ccncc1)C(=O)O; Aad = N[C@@H](CCCC(=O)O)C(=O)O; PEG4 = NCCOCCOCCOCCOCCC(=O)O; Tle = CC(C)(C)[C@H](N)C(=O)O; hLeu = CC(C)CC[C@H](N)C(=O)O; Nle = CCCC[C@H](N)C(=O)O; ξV = CC(C)C(N)C(=O)O

For the assay, the target named is T1, human 4lg B7-H3 (Homo sapiens, UniProt Q5ZPR3).
T1 sequence (Q5ZPR3 29-534): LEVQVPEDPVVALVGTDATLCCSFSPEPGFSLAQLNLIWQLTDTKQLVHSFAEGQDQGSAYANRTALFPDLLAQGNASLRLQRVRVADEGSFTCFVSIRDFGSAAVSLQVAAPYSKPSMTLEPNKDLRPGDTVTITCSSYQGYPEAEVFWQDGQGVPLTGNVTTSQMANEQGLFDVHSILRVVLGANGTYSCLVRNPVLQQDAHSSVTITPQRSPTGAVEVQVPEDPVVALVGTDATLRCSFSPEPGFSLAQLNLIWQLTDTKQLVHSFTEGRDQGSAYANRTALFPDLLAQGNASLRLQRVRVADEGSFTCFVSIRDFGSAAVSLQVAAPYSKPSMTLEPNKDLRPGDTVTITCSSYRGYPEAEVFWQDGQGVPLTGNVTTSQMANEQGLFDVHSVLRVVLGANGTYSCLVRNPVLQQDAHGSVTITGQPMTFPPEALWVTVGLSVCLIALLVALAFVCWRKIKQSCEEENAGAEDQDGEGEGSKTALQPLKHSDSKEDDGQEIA
Briefly: Affinity determination by surface plasmon resonance (SPR) to 4Ig B7-H3. Particulars: 4Ig B7-H3. (Surface plasmon resonance follows binding to a sensor surface in real time, without labels.)

Where [1] appears, read: SPR KD—25° C., 25° C. flow cell temperature.
The mark [2] stands for this setting: SPR KD—37° C., 37° C. flow cell temperature.

What is called Kd is the constant that tells how readily two partners part at equilibrium. In turn, `CC(=O)N[C@@H](CCC(C)C)C(=O)N[C@@H](Cc1ccc(O)cc1)C(=O)N[C@H]1CSSC[C@@H](C(=O)N[C@@H](Cc2cccc3ccccc23)C(=O)N[C@@H](Cc2ccccc2)C(=O)N2CCC[C@H]2C(=O)N[C@H](CCCCNC(=O)COCCOCCOCCOCCOCCOCCOCCOCCNC(=O)CN2CCN(CC(=O)O)CCN(CC(=O)O)CCN(CC(=O)O)CC2)C(N)=O)NC(=O)[C@H](Cc2ccc(O)cc2)NC(=O)[C@H](C(C)C)NC(=O)[C@H](CC(=O)O)NC(=O)[C@H](CC2CCOCC2)NC(=O)[C@H](CCCCN)NC(=O)CNC(=O)[C@H](C(C)(C)C)NC1=O` [compound 280, Ac-hLeu-Y-C-Tbg-G-K-ThpA-D-V-Y-C-1Nal-F-Pro-dLys(PEG8-DOTA)-CONH2] (Ac-[hLeu]YC[Tle]GK[Ala(4-THP)]DVYC[1Nal]FP[dK](X7)-NH2; disulfide 3-11) came in with a Kd under setting [1] below 1 nM.
Still for that read-out and setting: then `CCCC[C@H](NC(C)=O)C(=O)N[C@@H](Cc1ccc(O)cc1)C(=O)N[C@H]1CSSC[C@@H](C(=O)N[C@@H](Cc2c[nH]c3ccccc23)C(=O)N[C@@H](Cc2ccccc2)C(=O)N[C@H](C(=O)N[C@H](CCCCNC(=O)CN2CCN(CC(=O)O)CCN(CC(=O)O)CCN(CC(=O)O)CC2)C(N)=O)[C@@H](C)O)NC(=O)[C@H](Cc2ccc(O)cc2)NC(=O)[C@H](C(C)C)NC(=O)[C@H](CC(=O)O)NC(=O)[C@H](Cc2ccc(O)cc2)NC(=O)[C@H](Cc2ccncc2)NC(=O)CNC(=O)[C@H](C(C)C)NC1=O` [compound 79, Ac-Nle-Y-C-V-G-4PyA-Y-D-V-Y-C-W-F-Thr-dLys(DOTA)-CONH2] (Ac-[Nle]YCVG[4Pal]YDVYCWFT[dK](DOTA)-NH2; disulfide 3-11), with 10 to 100 nM.
Under setting [2], `CC(=O)N[C@@H](CCC(C)C)C(=O)N[C@@H](Cc1ccc(O)cc1)C(=O)N[C@H]1CSSC[C@@H](C(=O)N[C@@H](Cc2cn(CC(=O)O)c3ccccc23)C(=O)N[C@@H](Cc2ccccc2)C(=O)N[C@H](C(=O)N[C@H](CCCCNC(=O)CN2CCN(CC(=O)O)CCN(CC(=O)O)CCN(CC(=O)O)CC2)C(=O)O)C(C)(C)O)NC(=O)[C@H](Cc2ccc(O)cc2)NC(=O)[C@H](C(C)C)NC(=O)[C@H](CC(=O)O)NC(=O)[C@H](CC2CCOCC2)NC(=O)[C@H](CCCCN)NC(=O)CNC(=O)[C@H](C(C)(C)C)NC1=O` [compound 396, Ac-hLeu-Y-C-Tbg-G-K-ThpA-D-V-Y-C-Trp(CH2COOH)-F-hydroxyVal-dLys(DOTA)-COOH] (Ac-[hLeu]YC[Tle]GK[Ala(4-THP)]DVYC[Trp(1-CH2COOH)]F[Val(3-OH)][dK](DOTA)-OH; disulfide 3-11) yielded a Kd of 100 to 300 nM.
On the same count and under the same terms, then `CC(=O)N[C@@H](CCC(C)C)C(=O)N[C@@H](Cc1ccc(O)cc1)C(=O)N[C@H]1CSSC[C@@H](C(=O)N[C@@H](Cc2c[nH]c3ccc(F)cc23)C(=O)N[C@@H](Cc2ccccc2F)C(=O)N[C@H](C(=O)N[C@H](CCCCNC(=O)CN2CCN(CC(=O)O)CCN(CC(=O)O)CCN(CC(=O)O)CC2)C(=O)O)C(C)(C)O)NC(=O)[C@H](Cc2ccc(O)cc2)NC(=O)[C@H](C(C)C)NC(=O)[C@H](CC(=O)O)NC(=O)[C@H](CC2CCOCC2)NC(=O)[C@H](CC2CCNCC2)NC(=O)CNC(=O)[C@H](C(C)(C)C)NC1=O` [compound 470, Ac-hLeu-Y-C-Tbg-G-PipAla-ThpA-D-V-Y-C-5FW-2FPhe-hydroxyVal-dLys(DOTA)-COOH] (Ac-[hLeu]YC[Tle]G[Ala(piperidin-4-yl)][Ala(4-THP)]DVYC[Trp(5-F)][Phe(2-F)][Val(3-OH)][dK](DOTA)-OH; disulfide 3-11), with below 1 nM.
Take `CCCC[C@H](NC(C)=O)C(=O)N[C@@H](Cc1ccc(O)cc1)C(=O)N[C@H]1CSSC[C@@H](C(=O)N[C@@H](Cc2c[nH]c3ccccc23)C(=O)N[C@@H](Cc2ccccc2)C(=O)N[C@@H](CCC(N)=O)C(=O)O)NC(=O)[C@H](Cc2ccc(O)cc2)NC(=O)[C@H](C(C)C)NC(=O)[C@H](CC(=O)O)NC(=O)[C@H](Cc2ccc(O)cc2)NC(=O)[C@H](CCCCN)NC(=O)CNC(=O)[C@H](C(C)C)NC1=O` [compound 35, Ac-Nle-Y-C-V-G-K-Y-D-V-Y-C-W-F-gE-CONH2]: the equilibrium dissociation constant (Kd) under setting [1] fell in the range of 10 to 100 nM.
Same read-out and setting: next, `CCCC[C@H](NC(C)=O)C(=O)N[C@@H](Cc1ccc(O)cc1)C(=O)N[C@H]1CSSC[C@@H](C(=O)N[C@@H](Cc2cccc3ccccc23)C(=O)N[C@@H](Cc2ccccc2)C(=O)N[C@H](C(=O)N[C@H](CCCCNC(=O)CN2CCN(CC(=O)O)CCN(CC(=O)O)CCN(CC(=O)O)CC2)C(N)=O)[C@@H](C)O)NC(=O)[C@H](Cc2ccc(O)cc2)NC(=O)C(C(C)C)NC(=O)[C@H](CC(=O)O)NC(=O)[C@H](Cc2ccc(O)cc2)NC(=O)[C@H](CCCCN)NC(=O)CNC(=O)[C@H](C(C)C)NC1=O` (stereo partly drawn) [compound 128, Ac-Nle-Y-C-V-G-K-Y-D-V-Y-C-1Nal-F-Thr-dLys(DOTA)-CONH2] (Ac-[Nle]YCVGKYD[ξV]YC[1Nal]FT[dK](DOTA)-NH2; disulfide 3-11): 1 to 10 nM; `CC(=O)N[C@@H](CCC(C)C)C(=O)N[C@@H](Cc1ccc(O)cc1)C(=O)N[C@H]1CSSC[C@@H](C(=O)N[C@@H](Cc2cccc3ccccc23)C(=O)N[C@@H](Cc2ccccc2)C(=O)N2CCC[C@H]2C(=O)N[C@H](CCCCNC(=O)CC[C@H](NC(=O)CC[C@H](NC(=O)CN2CCN(CC(=O)O)CCN(CC(=O)O)CCN(CC(=O)O)CC2)C(=O)O)C(=O)O)C(N)=O)NC(=O)[C@H](Cc2ccc(O)cc2)NC(=O)[C@H](C(C)C)NC(=O)[C@H](CC(=O)O)NC(=O)[C@H](CC2CCOCC2)NC(=O)[C@H](CCCCN)NC(=O)CNC(=O)[C@H](C(C)(C)C)NC1=O` [compound 275, Ac-hLeu-Y-C-Tbg-G-K-ThpA-D-V-Y-C-1Nal-F-Pro-dLys(gE-gE-DOTA)-CONH2] (Ac-[hLeu]YC[Tle]GK[Ala(4-THP)]DVYC[1Nal]FP[dK]([γGlu-γGlu-DOTA])-NH2; disulfide 3-11): 1 to 10 nM.
In turn, `CC(=O)N[C@@H](CCC(C)C)C(=O)N[C@@H](Cc1ccc(O)cc1)C(=O)N[C@H]1CSSC[C@@H](C(=O)N[C@@H](Cc2c[nH]c3ccc(F)cc23)C(=O)N[C@@H](Cc2ccccc2C)C(=O)N[C@H](C(=O)N[C@H](CCCCNC(=O)CN2CCN(CC(=O)O)CCN(CC(=O)O)CCN(CC(=O)O)CC2)C(=O)O)C(C)(C)O)NC(=O)[C@H](Cc2ccc(O)cc2)NC(=O)[C@H](C(C)C)NC(=O)[C@H](CC(=O)O)NC(=O)[C@H](CC2CCOCC2)NC(=O)[C@H](CC2CCNCC2)NC(=O)CNC(=O)[C@H](C(C)(C)C)NC1=O` [compound 456, Ac-hLeu-Y-C-Tbg-G-PipAla-ThpA-D-V-Y-C-5FW-2MePhe-hydroxyVal-dLys(DOTA)-COOH] (Ac-[hLeu]YC[Tle]G[Ala(piperidin-4-yl)][Ala(4-THP)]DVYC[Trp(5-F)][Phe(2-Me)][Val(3-OH)][dK](DOTA)-OH; disulfide 3-11) had a Kd under setting [2] below 1 nM.
Same read-out and setting: next, `CC(=O)NCCOCCOCCOCCOCCC(=O)N1CCC(C[C@@H]2NC(=O)[C@H](CC3CCNCC3)NC(=O)CNC(=O)[C@H](C(C)(C)C)NC(=O)[C@@H](NC(=O)[C@H](Cc3ccc(O)cc3)NC(=O)[C@H](CCC(C)C)NC(C)=O)CSSC[C@@H](C(=O)N[C@@H](Cc3c[nH]c4ccc(F)cc34)C(=O)N[C@H](C(=O)N[C@H](C(=O)N[C@H](CCCCNC(=O)CN3CCN(CC(=O)O)CCN(CC(=O)O)CCN(CC(=O)O)CC3)C(=O)O)C(C)(C)O)[C@@H](C)c3ccccc3)NC(=O)[C@H](Cc3ccc(O)cc3)NC(=O)[C@H](C(C)C)NC(=O)[C@H](CC(=O)O)NC2=O)CC1` [compound 515, Ac-hLeu-Y-C-Tbg-G-PipAla-Pip(PEG4-Ac)Ala-D-V-Y-C-5FW-[(2S, 3S)beta-Me-Phe]-hydroxyVal-dLys(DOTA)-COOH] (Ac-[hLeu]YC[Tle]G[Ala(piperidin-4-yl)][Ala(piperidin-4-yl)]([PEG4-Ac])DVYC[Trp(5-F)][X1][Val(3-OH)][dK](DOTA)-OH; disulfide 3-11): below 1 nM.
`CCCC[C@H](NC(C)=O)C(=O)N[C@@H](Cc1ccc(O)cc1)C(=O)N[C@H]1CSSC[C@@H](C(=O)N[C@@H](Cc2c[nH]c3ccccc23)C(=O)N[C@@H](Cc2ccccc2)C(=O)N[C@H](C(=O)N[C@H](CCCCNC(=O)CN2CCN(CC(=O)O)CCN(CC(=O)O)CCN(CC(=O)O)CC2)C(=O)O)[C@@H](C)O)NC(=O)[C@H](Cc2ccc(O)cc2)NC(=O)[C@H](C(C)C)NC(=O)[C@H](CC(=O)O)NC(=O)[C@H](Cc2ccc(O)cc2)NC(=O)[C@H](CCCC(=O)O)NC(=O)CNC(=O)[C@H](C(C)C)NC1=O` [compound 103, Ac-Nle-Y-C-V-G-HomoGlu-Y-D-V-Y-C-W-F-Thr-dLys(DOTA)-COOH] (Ac-[Nle]YCVG[Aad]YDVYCWFT[dK](DOTA)-OH; disulfide 3-11) displayed a Kd under setting [1] of 10 to 100 nM.
Still for that read-out and setting: next, `CC(=O)N[C@@H](CCC(C)C)C(=O)N[C@@H](Cc1ccc(O)cc1)C(=O)N[C@H]1CSSC[C@@H](C(=O)N[C@@H](Cc2c[nH]c3ccc(F)cc23)C(=O)N[C@@H](Cc2ccccc2)C(=O)N[C@H](C(=O)N[C@H](CCCCNC(=O)CN2CCN(CC(=O)O)CCN(CC(=O)O)CCN(CC(=O)O)CC2)C(N)=O)[C@@H](C)O)NC(=O)[C@H](Cc2cccnc2)NC(=O)[C@H](C(C)C)NC(=O)[C@H](CC(=O)O)NC(=O)[C@H](Cc2ccc(O)cc2)NC(=O)[C@H](CCCCN)NC(=O)CNC(=O)[C@H](C(C)C)NC1=O` [compound 170, Ac-hLeu-Y-C-V-G-K-Y-D-V-3PyA-C-5FW-F-Thr-dLys(DOTA)-CONH2] (Ac-[hLeu]YCVGKYDV[3Pal]C[Trp(5-F)]FT[dK](DOTA)-NH2; disulfide 3-11): 1 to 10 nM.
